# Data taken from patent US20100204203A1, “Chemical Compounds 637: Pyridopyrimidinediones as PDE4 Inhibitors” (priority 2007, published 2010).
# Molecular target: recombinant Human Phosphodiesterase B2 (PDE4B2) (Homo sapiens, UniProt Q07343)
# Test: Human Phosphodiesterase B2 Radiometric Assay (yttrium silicate SPA beads, [3H]cyclic AMP)
# Format: biochemical
# Settings: recombinant human PDE4B2, radiometric SPA assay, 8 nM [3H]cyclic AMP; read-out: PDE4B2 pIC50 (converted)
# In short: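 Compounds were preincubated 30 min at 30 °C with 0.1 mg/mL PDE4B2 in 50 mM HEPES pH 7.5, 8.3 mM MgCl2, 1.7 mM EGTA, 0.01% Brij 35. Then 8 nM [3H]cAMP was added for 20 min, stopped with yttrium silicate SPA beads plus 18 mM ZnSO4 capturing product 5′AMP; pIC50 by curve fitting.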
# Chain of recombinant Human Phosphodiesterase B2 (PDE4B2) (Q07343 1-564 isoform Q07343-2): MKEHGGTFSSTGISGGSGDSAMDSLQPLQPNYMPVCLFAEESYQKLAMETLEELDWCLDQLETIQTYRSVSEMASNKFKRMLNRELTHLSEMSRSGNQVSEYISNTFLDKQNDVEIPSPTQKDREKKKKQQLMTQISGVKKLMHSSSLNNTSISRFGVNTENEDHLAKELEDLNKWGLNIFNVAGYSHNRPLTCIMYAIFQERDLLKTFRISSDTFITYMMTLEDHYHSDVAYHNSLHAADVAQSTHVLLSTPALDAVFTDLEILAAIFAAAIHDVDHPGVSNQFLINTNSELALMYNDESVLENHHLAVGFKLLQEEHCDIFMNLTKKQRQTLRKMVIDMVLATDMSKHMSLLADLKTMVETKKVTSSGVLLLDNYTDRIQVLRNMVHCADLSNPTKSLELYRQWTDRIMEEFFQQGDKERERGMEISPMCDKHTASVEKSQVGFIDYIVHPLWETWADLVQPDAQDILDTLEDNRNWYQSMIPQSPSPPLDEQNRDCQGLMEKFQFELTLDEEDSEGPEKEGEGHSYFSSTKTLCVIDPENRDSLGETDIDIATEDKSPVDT
row,Structure (SMILES),IC50 [nM]
1,"C[C@@H]1CN(Cc2ccc(-c3cccc(-n4c(=O)n([C@H]5CC[C@@H](NC(=O)C6(N(C)C)CC6)CC5)c(=O)c5cc(F)cnc54)c3)cc2)C[C@H](C)O1 [Example 209, 1-(dimethylamino)-N-{cis-4-[1-(4′-{[(2R,6S)-2,6-dimethylmorpholin-4-yl]methyl}biphenyl-3-yl)-6-fluoro-2,4-dioxo-1,4-dihydropyrido[2,3-d]pyrimidin-3(2H)-yl]cyclohexyl} cyclopropanecarboxamide]",0.00631
2,"O=C(N[C@H]1CC[C@@H](n2c(=O)c3cc(F)cnc3n(-c3cccc(-c4ccc(CN5CCCNCC5)cc4)c3)c2=O)CC1)c1cnc2ccccc2n1 [Example 352, N-{cis-4-[1-[4′-(1,4-diazepan-1-ylmethyl)biphenyl-3-yl]-6-fluoro-2,4-dioxo-1,4-dihydropyrido[2,3-d]pyrimidin-3(2H)-yl]cyclohexyl} quinoxaline-2-carboxamide]",0.0158
3,"CN(C)CCOc1ccc(-c2cccc(-n3c(=O)n([C@H]4CC[C@@H](NC(=O)c5cn6cc(F)ccc6n5)CC4)c(=O)c4cc(F)cnc43)c2)cc1 [Example 78, N-{cis-4-[1-{4′-[2-(dimethylamino)ethoxy]biphenyl-3-yl}-6-fluoro-2,4-dioxo-1,4-dihydropyrido[2,3-d]pyrimidin-3(2H)-yl]cyclohexyl}-6-fluoroimidazo[1,2-a]pyridine-2-carboxamide]",0.0398
4,"Cc1nc(C(=O)N[C@H]2CC[C@@H](n3c(=O)c4cc(F)cnc4n(-c4cccc(-c5ccc(CN6CCN(C(C)C)CC6)cc5)c4)c3=O)CC2)cs1 [Example 244, N-{cis-4-[6-fluoro-1-{4′-[(4-isopropylpiperazin-1-yl)methyl]biphenyl-3-yl}-2,4-dioxo-1,4-di-hydropyrido[2,3-d]pyrimidin-3(2H)-yl]cyclohexyl}-2-methyl-1,3-thiazole-4-carboxamide]",0.01
5,"Cc1cccc2nc(C(=O)N[C@H]3CC[C@@H](n4c(=O)c5cc(F)cnc5n(-c5cccc(-c6ccc(CN7CCCN(C)CC7)cc6)c5)c4=O)CC3)cn12 [Example 220, N-{cis-4-[6-fluoro-1-{4′-[(4-methyl-1,4-diazepan-1-yl)methyl]biphenyl-3-yl}-2,4-dioxo-1,4-dihydropyrido[2,3-d]pyrimidin-3(2H)-yl]cyclohexyl}-5-methylimidazo[1,2-a]pyridine-2-carboxamide]",0.00794
6,"CN(Cc1cc(O)ccc1-c1cccc(-n2c(=O)n([C@H]3CC[C@@H](NCc4cn5cc(F)ccc5n4)CC3)c(=O)c3cc(F)cnc32)c1)CC1(O)CC1 [Example 322, 6-fluoro-3-(cis-4-{[(6-fluoroimidazo[1,2-c]pyridin-2-yl)methyl]amino}cyclohexyl)-1-(4′-hydroxy-2′-{[[(1-hydroxycyclopropyl)methyl](methyl)amino]methyl}biphenyl-3-yl)pyrido[2,3-d]pyrimidine-2,4(1H,3H)-dione]",0.251
7,"Cc1cccc(C(=O)N[C@H]2CC[C@@H](n3c(=O)c4cc(F)cnc4n(-c4cccc(-c5ccc(CN6CCCNCC6)cc5)c4)c3=O)CC2)n1 [Example 356, N-{cis-4-[1-[4′-(1,4-diazepan-1-ylmethyl)biphenyl-3-yl]-6-fluoro-2,4-dioxo-1,4-dihydropyrido[2,3-d]pyrimidin-3(2H)-yl]cyclohexyl}-6-methylpyridine-2-carboxamide]",0.0631
8,"CC(=O)N[C@H]1CC[C@@H](n2c(=O)c3cc(F)cnc3n(-c3cccc(-c4ccc(CN5CCN(C(C)C)CC5)cc4)c3)c2=O)CC1 [Example 232, N-{cis-4-[6-Fluoro-1-{4′-[(4-isopropylpiperazin-1-yl)methyl]biphenyl-3-yl}-2,4-dioxo-1,4-dihydropyrido[2,3-d]pyrimidin-3(2H)-yl]cyclohexyl}acetamide]",0.251
9,"Cc1cc(C(=O)N[C@H]2CC[C@@H](n3c(=O)c4cc(F)cnc4n(-c4cccc(-c5ccc(CN6CCN(C(C)C)CC6)cc5)c4)c3=O)CC2)no1 [Example 243, N-{cis-4-[6-fluoro-1-{4′-[(4-isopropylpiperazin-1-yl)methyl]biphenyl-3-yl}-2,4-dioxo-1,4-di-hydropyrido[2,3-d]pyrimidin-3(2H)-yl]cyclohexyl}-5-methyl-isoxazole-3-carboxamide]",0.0398
10,"Cc1c(CN[C@H]2CC[C@@H](n3c(=O)c4cc(F)cnc4n(-c4cccc(-c5ccc(CN6CCN(C(C)C)CC6)cc5)c4)c3=O)CC2)ncn1Cc1ccccc1 [Example 263, 3-(cis-4-{[(1-benzyl-5-methyl-1H-imidazol-4-yl)methyl]amino}cyclohexyl)-6-fluoro-1-{4′-[(4-isopropylpiperazin-1-yl)methyl]biphenyl-3-yl}pyrido[2,3-d] pyrimidine-2,4(1H,3H)-dione]",1.58
11,"O=c1c2cc(F)cnc2n(-c2cccc(-c3ccc(O)cc3CN3CCCOCC3)c2)c(=O)n1[C@H]1CC[C@@H](NCc2cn3cc(F)ccc3n2)CC1 [Example 254, 6-Fluoro-3-(cis-4-{[(6-fluoroimidazo[1,2-a]pyridin-2-yl)methyl]amino}cyclohexyl)-1-[4′-hydroxy-2′-(1,4-oxazepan-4-ylmethyl)biphenyl-3-yl]pyrido[2,3-d]pyrimidine-2,4(1H,3H)-dione]",0.0316
12,"CCCCc1ccc(C(=O)N[C@H]2CC[C@@H](n3c(=O)c4cc(F)cnc4n(-c4cccc(-c5ccc(CN6CCCNCC6)cc5)c4)c3=O)CC2)nc1 [Example 351, 5-butyl-N-{cis-4-[1-[4′-(1,4-diazepan-1-ylmethyl)biphenyl-3-yl]-6-fluoro-2,4-dioxo-1,4-dihydropyrido[2,3-d]pyrimidin-3(2H)-yl]cyclohexyl}pyridine-2-carboxamide]",0.0316
13,"CN(C)CCCC(=O)N[C@H]1CC[C@@H](n2c(=O)c3cc(F)cnc3n(-c3cccc(-c4ccccc4)c3)c2=O)CC1 [Example 93, N-[cis-4-(1-biphenyl-3-yl-6-fluoro-2,4-dioxo-1,4-dihydropyrido[2,3-d]pyrimidin-3(2H)-yl)cyclohexyl]-4-(dimethylamino)butanamide]",5.01
14,"O=C(N[C@H]1CC[C@@H](n2c(=O)c3cc(F)cnc3n(-c3cccc(-c4ccc(CN5CCCNCC5)cc4)c3)c2=O)CC1)c1ccc2ccccc2n1 [Example 350, N-{cis-4-[1-[4′-(1,4-diazepan-1-ylmethyl)biphenyl-3-yl]-6-fluoro-2,4-dioxo-1,4-dihydropyrido[2,3-d]pyrimidin-3(2H)-yl]cyclohexyl} quinoline-2-carboxamide]",0.0158

# Other lines, results leading:
row,IC50 [nM],Structure (SMILES)
1,2,"CC(=O)N[C@H]1CC[C@@H](n2c(=O)c3cc(F)cnc3n(-c3cccc(-c4ccc(CN(C)C)cc4)c3)c2=O)CC1 [Example 89, N-{cis-4-[1-{4′-[(dimethylamino)methyl]biphenyl-3-yl}-6-fluoro-2,4-dioxo-1,4-dihydropyrido[2,3-d]pyrimidin-3(2H)-yl]cyclohexyl}acetamide]"
2,0.1,"CCCCc1ccc(C(=O)N[C@H]2CC[C@@H](n3c(=O)c4cc(F)cnc4n(-c4cccc(-c5ccc(CN6C[C@@H](C)N[C@@H](C)C6)cc5)c4)c3=O)CC2)nc1 [Example 302, 5-butyl-N-{cis-4-[1-(4′-{[(3R,5S)-3,5-dimethylpiperazin-1-yl]methyl}biphenyl-3-yl)-6-fluoro-2,4-dioxo-1,4-dihydropyrido[2,3-d]pyrimidin-3(2H)-yl]cyclohexyl} pyridine-2-carboxamide]"
3,0.2,"Cc1cnc(C(=O)N[C@H]2CC[C@@H](n3c(=O)c4cc(F)cnc4n(-c4cccc(-c5ccc(CN6C[C@@H](C)N[C@@H](C)C6)cc5)c4)c3=O)CC2)cn1 [Example 361, N-{cis-4-[1-(4′-{[(3R,5S)-3,5-dimethylpiperazin-1-yl]methyl}biphenyl-3-yl)-6-fluoro-2,4-dioxo-1,4-dihydropyrido[2,3-d]pyrimidin-3(2H)-yl]cyclohexyl}-5-methylpyrazine-2-carboxamide]"
4,0.0251,"CNCCOc1ccc(-c2cccc(-n3c(=O)n([C@H]4CC[C@@H](NC(=O)c5cn6cc(F)ccc6n5)CC4)c(=O)c4cc(F)cnc43)c2)cc1 [Example 77, 6-fluoro-N-{cis-4-[6-fluoro-1-{4′-[2-(methylamino)ethoxy]biphenyl-3-yl}-2,4-dioxo-1,4-dihydropyrido[2,3-d]pyrimidin-3(2H)-yl]cyclohexyl}imidazo[1,2-c]pyridine-2-carboxamide]"
5,0.0501,"C[C@@H]1CN(Cc2ccc(-c3cccc(-n4c(=O)n([C@H]5CC[C@@H](NC(=O)c6nc7ccccc7[nH]6)CC5)c(=O)c5cc(F)cnc54)c3)cc2)C[C@H](C)N1 [Example 305, N-{cis-4-[1-(4′-{[(3R,5S)-3,5-dimethylpiperazin-1-yl]methyl}biphenyl-3-yl)-6-fluoro-2,4-dioxo-1,4-dihydropyrido[2,3-d]pyrimidin-3(2H)-yl]cyclohexyl}-1H-benzimidazole-2-carboxamide]"
6,0.0631,"Cc1ccc2nc(CN[C@H]3CC[C@@H](n4c(=O)c5cc(F)cnc5n(-c5cccc(-c6ccc(O)cc6CN6CCOCC6)c5)c4=O)CC3)cn2c1 [Example 334, 6-fluoro-1-[4′-hydroxy-2′-(morpholin-4-ylmethyl)biphenyl-3-yl]-3-(cis-4-{[(6-methylimidazo[1,2-a]pyridin-2-yl)methyl]amino}cyclohexyl)pyrido[2,3-d]pyrimidine-2,4 (1H,3H)-dione]"
7,0.398,"O=c1c2cc(F)cnc2n(-c2cccc(-c3ccc(O)cc3CN3CC[C@H](O)C3)c2)c(=O)n1[C@H]1CC[C@@H](NCc2cn3cc(F)ccc3n2)CC1 [Example 331, 6-fluoro-3-(cis-4-{[(6-fluoroimidazo[1,2-a]pyridin-2-yl)methyl]amino}cyclohexyl)-1-(4′-hydroxy-2′-{[(3S)-3-hydroxypyrrolidin-1-yl]methyl}biphenyl-3-yl)pyrido[2,3-d]pyrimidine-2,4(1H,3H)-dione]"
8,0.126,"Cc1cc(C(=O)N[C@H]2CC[C@@H](n3c(=O)c4cc(F)cnc4n(-c4cccc(-c5ccc(CN(C)C(C)(C)C)cc5)c4)c3=O)CC2)nn1C [Example 131, N-{cis-4-[1-(4′-{[tert-butyl(methyl)amino]methyl}biphenyl-3-yl)-6-fluoro-2,4-dioxo-1,4-dihydropyrido[2,3-d]pyrimidin-3(2H)-yl]cyclohexyl}-1,5-dimethyl-1H-pyrazole-3-carboxamide]"
